# From patent US20060165769A1, “Pharmaceutical formulations containing vitamin E TPGS molecules that solubilize lipophilic drugs without significant efflux inhibition, and use of such formulations” (priority 2004, published 2006)
# System: Caco-2 monolayers (efflux transport of Rhodamine 123)
# Assay: Inhibition Protocol: Rhodamine 123 transport across Caco-2 monolayers in the presence of TPGS analog
# Type: cell-based
# Conditions: relative to Rhodamine 123 alone, TPGS analog 33 μmolar
# Method: As used herein, the term “Inhibition Protocol” or “inhibition protocol” refers to the following test. The test is carried out using Caco-2 (C2BBe1 or HTB-37) monolayers which are known to be a good in vitro model for gastrointestinal epithelial cells. The following describes the inhibition protocol: Caco-2 cells, clone C2BBe1, from passages 48-92 are used. Cells are grown to ˜90% confluent in 75 cm^2 T-flasks with Dulbecco's modified Eagle's medium (DMEM) supplemented with 10% fetal bovine serum (FBS) and 1% non-essential amino-acids. Cells are grown at a temperature of ˜37° C. in an atmosphere of ˜85% relative humidity and ˜5% CO2. Cells are seeded on top of Transwell® inserts (pore size 0.4 μm, 1.13 cm^2) at a density of ˜60,000 cells/cm^2. […]
# Rhodamine 123 (RHO) transport is assessed in absorptive (apical to basolateral, Ap→BI) and secretory (BI→Ap) directions. […]
# Monolayers are agitated using an orbital shaker at ˜100±20 rpm. […] To ensure integrity of the monolayers, TEER values were measured on the day of the experiment and at the end of the experiment.
# Apparent permeability (Papp) was calculated according to: Papp=(dQ/dt)*(1/A)*(1/Co)
# where A (cm^2) is the nominal surface area of the monolayer and C0 (μg/mL) is the RHO concentration in the donor compartment at t=0. Relative change of Papp(cm/s)was calculated according to the equation: rel. increase/decrease=|(1−Papp(TPGS)/Papp(RHO))*100|. […]
substance,measurement,value
d-α-tocopheryl polyethylene glycol succinate [TPGS 1000],"% Decrease, B to A",73.6%
same,"% Increase, A to B",82.5%
